In patent publication US11596639B2, “Substituted indole Mcl-1 inhibitors” (Vanderbilt University, priority 2016, dated 2023):
Read-outs that look alike come from different tables or passages of the source.

Assays:
[1] = target: Mcl-1 (Homo sapiens (Human), UniProt Q07820); test: TR-FRET binding assay, FITC-Bak peptide and MBP-tagged Mcl-1; settings: read-out: Ki for Inhibition of Mcl-1 by TR-FRET assay
Procedure: Compounds are diluted in DMSO in a 16-point, semilog serial dilution scheme. […] The plate was mixed and incubated for 3 hours at room temperature. […] TR-FRET signal is plotted and IC50 and Ki values are calculated in the same manner as the fluorescence polarization anisotropy based competition assays.

[2] = tested on: H929 human cancer cell lines; test: Cellular viability / proliferation (Cell TiterGlo, 72 h); format: cell-based
Outline: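 Compounds were added as 2-fold serial dilutions from 50 μM (final DMSO <1%) to H929 cells seeded 1,000 per well in 10% FBS medium one day earlier.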

[3] = Homo sapiens, NCI-H929, 72 h, read-out: GI50 on cellular proliferation of H929 human cancer cell lines, H929 cells, 72 h, Cell TiterGlo, 10% FBS
[4] = read-out: GI50 on cellular proliferation of H929 human cancer cell lines, H929 cells, 72 h, Cell TiterGlo, 10% FBS

Chain of Mcl-1 (Q07820 172-327): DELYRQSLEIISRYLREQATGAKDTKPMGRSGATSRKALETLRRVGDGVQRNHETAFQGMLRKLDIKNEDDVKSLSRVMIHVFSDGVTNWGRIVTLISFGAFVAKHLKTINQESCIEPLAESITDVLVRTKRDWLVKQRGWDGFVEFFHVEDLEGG

Compound | Ki [1] [nM] | GI50 [2, 3] [nM] | GI50 [2, 4] [nM]
COc1ccc(N2C[C@@H](C)n3c(c(CCCOc4cc(C)c(Cl)c(C)c4)c4ccc(Cl)c(-c5c(C)ncnc5C)c43)C2=O)c2c1cc(C(=O)O)n2Cc1cc(C)ccn1 [Example 520, (R)-7-(7-chloro-10-(3-(4-chloro-3,5-dimethylphenoxy)propyl)-6-(4,6-dimethylpyrimidin-5-yl)-4-methyl-1-oxo-3,4-dihydropyrazino[1,2-a]indol-2(1H)-yl)-4-methoxy-1-((4-methylpyridin-2-yl)methyl)-1H-indole-2-carboxylic acid] | < 0.2 | < 200 | –
COc1ccc(N2C[C@@H](C)n3c(c(CCCOc4cc(C)c(Cl)c(C)c4)c4ccc(Cl)c(-c5c(C)nc(CN(C)C)nc5C)c43)C2=O)c2c1cc(C(=O)O)n2Cc1ccccn1 [Example 482, (R)-7-(7-Chloro-10-(3-(4-chloro-3,5-dimethylphenoxy)propyl)-6-(2-((dimethylamino)methyl)-4,6-dimethylpyrimidin-5-yl)-4-methyl-1-oxo-3,4-dihydropyrazino[1,2-a]indol-2(1H)-yl)-4-methoxy-1-(pyridin-2-ylmethyl)-1H-indole-2-carboxylic acid] | < 0.2 | 340 | –
COc1ccc(N2C[C@@H](C)n3c(c(CCCOc4cc(C)c(Cl)c(C)c4)c4ccc(Cl)c(-c5c(C)nn(C)c5C)c43)C2=O)c2c1c(C(=O)O)cn2Cc1ccccn1 [Example 617, (R)-7-(7-chloro-10-(3-(4-chloro-3,5-dimethylphenoxy)propyl)-4-methyl-1-oxo-6-(1,3,5-trimethyl-1H-pyrazol-4-yl)-3,4-dihydropyrazino[1,2-a]indol-2(1H)-yl)-4-methoxy-1-(pyridin-2-ylmethyl)-1H-indole-3-carboxylic acid] | < 0.2 | 440 | –
Cc1cc(OCCCc2c3n(c4c(-c5c(C)nn(C)c5C)c(Cl)ccc24)[C@H](C)CN(c2cn(C)c4ccc(-c5nn[nH]n5)nc24)C3=O)cc(C)c1Cl [Example 687, (R)-7-chloro-10-(3-(4-chloro-3,5-dimethylphenoxy)propyl)-4-methyl-2-(1-methyl-5-(2H-tetrazol-5-yl)-1H-pyrrolo[3,2-b]pyridin-3-yl)-6-(1,3,5-trimethyl-1H-pyrazol-4-yl)-3,4-dihydropyrazino[1,2-a]indol-1(2H)-one] | < 0.2 | 330 | –
Cc1cc(OCCCc2c3n(c4c(-c5c(C)nn(C)c5C)c(Cl)ccc24)[C@H](C)CN(c2cc(OCCN(C)C)cc4cc(C(=O)O)n(Cc5ccccn5)c24)C3=O)cc(C)c1Cl [Example 590, (R)-7-(7-chloro-10-(3-(4-chloro-3,5-dimethylphenoxy)propyl)-4-methyl-1-oxo-6-(1,3,5-trimethyl-1H-pyrazol-4-yl)-3,4-dihydropyrazino[1,2-a]indol-2(1H)-yl)-5-(2-(dimethylamino)ethoxy)-1-(pyridin-2-ylmethyl)-1H-indole-2-carboxylic acid] | < 0.2 | 670 | –
Cc1ccnc(Cn2c(C(=O)O)cc3cc(OCCN(C)C)cc(N4C[C@@H](C)n5c(c(CCCOc6cc(C)c(Cl)c(C)c6)c6ccc(Cl)c(-c7c(C)ncnc7C)c65)C4=O)c32)c1 [Example 584, (R)-7-(7-chloro-10-(3-(4-chloro-3,5-dimethylphenoxy)propyl)-6-(4,6-dimethylpyrimidin-5-yl)-4-methyl-1-oxo-3,4-dihydropyrazino[1,2-a]indol-2(1H)-yl)-5-(2-(dimethylamino)ethoxy)-1-((4-methylpyridin-2-yl)methyl)-1H-indole-2-carboxylic acid] | < 0.2 | 1000 | –
Cc1cc(OCCCc2c3n(c4c(-c5c(C)nn(C)c5C)c(Cl)ccc24)[C@H](C)CN(c2cn(C)c4ccc(C(=O)O)nc24)C3=O)cc(C)c1Cl [Example 489, (R)-3-(7-Chloro-10-(3-(4-chloro-3,5-dimethylphenoxy)propyl)-4-methyl-1-oxo-6-(1,3,5-trimethyl-1H-pyrazol-4-yl)-3,4-dihydropyrazino[1,2-a]indol-2(1H)-yl)-1-methyl-1H-pyrrolo[3,2-b]pyridine-5-carboxylic acid] | < 0.2 | < 200 | –
Cc1cc(OCCCc2c3n(c4c(-c5c(C)nn(C)c5C)c(Cl)ccc24)[C@H](C)CN(c2cc(C(=O)N4CCN(C)C(=O)C4)cc4cc(C(=O)O)n(C)c24)C3=O)cc(C)c1Cl [Example 630, (R)-7-(7-chloro-10-(3-(4-chloro-3,5-dimethylphenoxy)propyl)-4-methyl-1-oxo-6-(1,3,5-trimethyl-1H-pyrazol-4-yl)-3,4-dihydropyrazino[1,2-a]indol-2(1H)-yl)-1-methyl-5-(4-methyl-3-oxopiperazine-1-carbonyl)-1H-indole-2-carboxylic acid] | < 0.2 | 9000 | –
COCCn1cc(C(=O)O)c2cc(OC)cc(N3C[C@@H](C)n4c(c(CCCOc5cc(C)c(Cl)c(C)c5)c5ccc(Cl)c(-c6c(C)nn(C)c6C)c54)C3=O)c21 (single isomer, unassigned) [Example 672] | 0.43 | – | 840
COCCn1c(C(=O)O)cc2cc(C)cc(N3C[C@@H](C)n4c(c(CCCOc5cc(C)c(Cl)c(C)c5)c5ccc(Cl)c(-c6c(C)ncnc6C)c54)C3=O)c21 [Example 594, (R)-7-(7-chloro-10-(3-(4-chloro-3,5-dimethylphenoxy)propyl)-6-(4,6-dimethylpyrimidin-5-yl)-4-methyl-1-oxo-3,4-dihydropyrazino[1,2-a]indol-2(1H)-yl)-1-(2-methoxyethyl)-5-methyl-1H-indole-2-carboxylic acid] | < 0.2 | 230 | –
COCCOc1cc(N2C[C@@H](C)n3c(c(CCCOc4cc(C)c(Cl)c(C)c4)c4ccc(Cl)c(-c5c(C)nn(C)c5C)c43)C2=O)c2c(c1)c(C(=O)O)cn2Cc1ccccn1 [Example 609, (R)-7-(7-chloro-10-(3-(4-chloro-3,5-dimethylphenoxy)propyl)-4-methyl-1-oxo-6-(1,3,5-trimethyl-1H-pyrazol-4-yl)-3,4-dihydropyrazino[1,2-a]indol-2(1H)-yl)-5-(2-methoxyethoxy)-1-(pyridin-2-ylmethyl)-1H-indole-3-carboxylic acid] | 0.26 | 340 | –
COc1ccc(N2C[C@@H](C)n3c(c(CCCOc4cc(C)c(Cl)c(C)c4)c4ccc(Cl)c(-c5c(C)n[nH]c5C)c43)C2=O)c2c1cc(C(=O)O)n2Cc1ccccn1 [Example 724, (R)-7-(7-chloro-10-(3-(4-chloro-3,5-dimethylphenoxy)propyl)-6-(3,5-dimethyl-1H-pyrazol-4-yl)-4-methyl-1-oxo-3,4-dihydropyrazino[1,2-a]indol-2(1H)-yl)-4-methoxy-1-(pyridin-2-ylmethyl)-1H-indole-2-carboxylic acid] | < 0.2 | 330 | –
Cc1cc(OCCCc2c3n(c4c(-c5c(C)nn(C)c5C)c(Cl)ccc24)[C@H](C)CN(c2cc(NCc4ccccn4)cc4c(C(=O)O)cn(C)c24)C3=O)cc(C)c1Cl [Example 523, (R)-7-(7-Chloro-10-(3-(4-chloro-3,5-dimethylphenoxy)propyl)-4-methyl-1-oxo-6-(1,3,5-trimethyl-1H-pyrazol-4-yl)-3,4-dihydropyrazino[1,2-a]indol-2(1H)-yl)-1-methyl-5-((pyridin-2-ylmethyl)amino)-1H-indole-3-carboxylic acid] | 0.5 | 890 | –
COc1ccc(N2C[C@@H](C)n3c(c(CCCOc4cc(C)c(Cl)c(C)c4)c4ccc(Cl)c(-c5c(C)nn(C)c5C)c43)C2=O)c2c1cc(C(=O)O)n2Cc1cc(C)ccn1 [Example 582, (R)-7-(7-chloro-10-(3-(4-chloro-3,5-dimethylphenoxy)propyl)-4-methyl-1-oxo-6-(1,3,5-trimethyl-1H-pyrazol-4-yl)-3,4-dihydropyrazino[1,2-a]indol-2(1H)-yl)-4-methoxy-1-((4-methylpyridin-2-yl)methyl)-1H-indole-2-carboxylic acid] | 0.28 | 220 | –
Cc1ccnc(Cn2cc(C(=O)O)c3cccc(N4C[C@@H](C)n5c(c(CCCOc6cc(C)c(Cl)c(C)c6)c6ccc(Cl)c(-c7c(C)nn(C)c7C)c65)C4=O)c32)c1 [Example 484, (R)-7-(7-Chloro-10-(3-(4-chloro-3,5-dimethylphenoxy)propyl)-4-methyl-1-oxo-6-(1,3,5-trimethyl-1H-pyrazol-4-yl)-3,4-dihydropyrazino[1,2-a]indol-2(1H)-yl)-1-((4-methylpyridin-2-yl)methyl)-1H-indole-3-carboxylic acid] | < 0.2 | – | 310
COc1cc(N2C[C@@H](C)n3c(c(CCCOc4cc(C)c(Cl)c(C)c4)c4ccc(Cl)c(-c5c(C)ncnc5C)c43)C2=O)c2c(c1)cc(C(=O)O)n2Cc1cccc(C)n1 [Example 572, (R)-7-(7-chloro-10-(3-(4-chloro-3,5-dimethylphenoxy)propyl)-6-(4,6-dimethylpyrimidin-5-yl)-4-methyl-1-oxo-3,4-dihydropyrazino[1,2-a]indol-2(1H)-yl)-5-methoxy-1-((6-methylpyridin-2-yl)methyl)-1H-indole-2-carboxylic acid] | < 0.2 | 300 | –
Cc1cc(OCCCc2c3n(c4c(-c5c(C)nn(C)c5C)c(Cl)ccc24)[C@H](C)CN(c2cn(C)c4ccc(-c5nc(C)n(C)n5)cc24)C3=O)cc(C)c1Cl [Example 643, (R)-7-Chloro-10-(3-(4-chloro-3,5-dimethylphenoxy)propyl)-2-(5-(1,5-dimethyl-1H-1,2,4-triazol-3-yl)-1-methyl-1H-indol-3-yl)-4-methyl-6-(1,3,5-trimethyl-1H-pyrazol-4-yl)-3,4-dihydropyrazino[1,2-a]indol-1(2H)-one] | 1.3 | 340 | –
